We go through 11 compounds from ChEMBL document CHEMBL1140357, “Discovery of hydroxamic acid analogs as dual inhibitors of phosphodiesterase-1 and -5” (Bioorg Med Chem Lett, 2005).

One assay concerns the target Phosphodiesterase 1 (Homo sapiens, UniProt P54750+Q01064+Q14123). Put plainly: Inhibitory concentration against Phosphodiesterase type 1. The class given is protein assay.
In assay [1] the target is cGMP-specific 3',5'-cyclic phosphodiesterase (Homo sapiens, UniProt O76074). Put plainly: Inhibitory concentration against Phosphodiesterase type 5.
Another assay concerns the target Phosphodiesterase 3 (Homo sapiens, UniProt Q14432+Q13370). Put plainly: Inhibitory concentration against Phosphodiesterase type 3. The class given is protein assay.
Another assay is filed under the species Rattus norvegicus. Nature of the assay: Effective concentration required for vasodilatory effect in isolated vessel of rat. The class given is functional.

In the case of `O=C(Cc1csc(NC(=O)c2ccc3ccccc3n2)n1)NO`, the half-maximal inhibitory concentration (IC50) on Phosphodiesterase 1 amounted to 8 µM; in assay [1], 0.14 µM.

For the compound `O=C(Cc1csc(NC(=O)c2cccc(COc3ccccc3)n2)n1)NO`, the IC50 is 0.92 µM against Phosphodiesterase 1, more than 10 µM against Phosphodiesterase 3 and 0.19 µM in assay [1]. The same compound showed an EC50 in the assay filed under Rattus norvegicus of 3.9 µM.

In the case of `CN(C)c1cccc(C(=O)Nc2nc(CC(=O)NO)cs2)c1`, the half-maximal inhibitory concentration (IC50) was more than 10 µM against Phosphodiesterase 1 and 5.47 µM in assay [1].

With `CCCCCCCCCCCC(=O)Nc1nc(CC(=O)NO)cs1`, the IC50 is more than 10 µM on Phosphodiesterase 1 and 1.8 µM in assay [1].

`CC(C)CC(C(=O)NO)c1csc(NC(=O)c2cccc(COc3ccccc3)n2)n1` (stereo unspecified): the IC50 on Phosphodiesterase 1 is 3.94 µM; in assay [1], 0.62 µM.

`O=C(Cc1csc(NC(=O)c2ccccc2)n1)NO`: the half-maximal inhibitory concentration (IC50) at Phosphodiesterase 1 was more than 10 µM; in assay [1], 3.25 µM.

Consider `CC(C)CC(C(=O)O)c1csc(NC(=O)c2cccc(COc3ccccc3)n2)n1` (stereo unspecified), for which the concentration for half-maximal inhibition (IC50) against Phosphodiesterase 1 is more than 10 µM; in assay [1] it was 6.25 µM.

Regarding `O=C(Cc1csc(NC(=O)CCCCCc2ccccc2)n1)NO`, the IC50 at Phosphodiesterase 1 turned out to be 4.5 µM; in assay [1], 1.9 µM.

On to `CCc1cc(C(C)=O)c(O)cc1OCc1cccc(C(=O)Nc2nc(CC(=O)NO)cs2)n1`, for which the IC50 against Phosphodiesterase 1 amounted to 0.087 µM; at Phosphodiesterase 3, 1.3 µM; in assay [1], 0.026 µM. The compound further registered an EC50 in the assay filed under Rattus norvegicus of 0.9 µM.

Regarding `O=C(Cc1csc(NC(=O)c2ccccc2F)n1)NO`, the IC50 against Phosphodiesterase 1 was more than 10 µM; in assay [1], 7.56 µM.

`CCCCCCC(C(=O)NO)c1csc(NC(=O)c2cccc(COc3ccccc3)n2)n1` (stereo unspecified): the IC50 was determined as 5.7 µM on Phosphodiesterase 1 and 0.23 µM in assay [1].
